{
  "source": "patent US9839241B2",
  "about": "“Methods, devices and systems for pulmonary delivery of active agents” (priority 2014, dated 2017)",
  "key": {"[1]": {"system": "chronic neuropathic pain", "details": "cited from earlier work; for reduction of pain intensity: Wilsey et al. 2013, vaporized 10.3 mg total available Δ^9-THC in two sessions"}, "[2]": {"assay": "Analysis of residual cannabis material after vaporization in the MDI"}, "[3]": {"details": "cited from earlier work; for mean Cmax increase per mg Δ^9-THC: continuous blood withdrawal"}, "[4]": {"assay": "Monitoring of adverse effects, blood pressure and heart rate after inhalation", "assay_type": "in vivo, human", "description": "(§1) The study was used to further evaluate the pharmacodynamic effect of pulmonary delivery of Δ^9-THC on pain reduction from baseline using a 10 cm visual analog scale (VAS) pain scale (0 being no pain; and 10 being worst possible pain); for monitoring adverse effects, blood pressure and heart rate, and for estimating the degree of satisfaction with the use of the MDI on a 0-10 scale.\n(§2) Pain intensity reduction was assessed as a therapeutic effect by asking participants to indicate the intensity of their current pain on a 100 mm visual analog scale (VAS) between 0 (no pain) and 100 (worst possible pain) at baseline (prior to the inhalation) and at 20 and 90 minutes following the pulmonary delivery of the pharmaceutically active agent from cannabis. Adverse effects, in the form of psychotropic symptoms, were recorded at 5, 15, 30, 60 and 120 minutes post pulmonary delivery, along with those spontaneously reported by the participants. Adverse effects were evaluated according to standardized criteria in terms of severity, frequency, duration and relationship to the study's active agent. Adverse effects were graded using the NIH Division of AIDS table for scoring severity of adult adverse experiences. Blood pressure and pulse rate were also recorded before, during and after the pulmonary delivery.\nResults are reported herein as mean values±1 standard deviation (±SD). […]"}, "[5]": {"system": "neuropathic pain", "assay": "VAS pain intensity after pulmonary delivery of Δ^9-THC with the MDI", "assay_type": "in vivo, human", "description": "as §1\nThe study was conducted at the Pain Research Unit of Rambam Health Care Campus in Haifa, Israel.\nas §2\nResults are reported herein as mean values±1 standard deviation (±SD). For each one of the measured effects (VAS pain intensity, systolic and diastolic blood pressure, heart rate and satisfaction score), the mean and 95% confidence interval (CI) at different time points was plotted. Differences between VAS pain intensity values and satisfaction scores, before and after inhalation, were tested by two-tailed paired Student t-test. Blood pressure and heart rate values were compared among different time points by one-way ANOVA. P-values <0.05 were accepted as significant. All statistical analyses were performed using Minitab Statistical Software, version 16."}, "[6]": {"assay": "PK study: plasma Δ^9-THC levels after single dose inhalation from cannabis flos with the metered-dose inhaler (MDI)", "description": "A study was conducted in order to characterize the inter-individual variability of Δ^9-THC plasma levels during the absorption phase, upon using a hand-held metered-dose MDI device configured for pulmonary delivering pre-determined amounts of the active agent Δ^9-THC from a solid substance (cannabis-derived plant substance) upon heating the substance.\nRoutine medications were continued throughout the trial."}},
  "note": "Entries after “also recorded” stand apart in the source; their conditions may differ. Where two headings read alike, the source gives them in different places.",
  "data": [
    {"smiles": "CCCCCc1cc(O)c2c(c1)OC(C)(C)[C@@H]1CCC(C)=C[C@@H]21", "note": "[Δ^9-THC, Δ9-tetrahydrocannabinol]", "values": [
      {"measurement": "mean Cmax elevation", "setting": "[1]; Ware et al. 2010, single smoke inhalation of 25±1 mg cannabis, 9.4% Δ^9-THC, three times a day for 5 days", "value": 45, "unit": "ng/mL"},
      {"measurement": "reduction of neuropathic pain (plateau, ceiling effect)", "setting": "[1]; Wilsey et al. 2008, smoking 19 mg or 34 mg total available Δ^9-THC in 3 doses", "value": 45, "unit": "%"},
      {"measurement": "reduction of pain intensity", "setting": "[1]; 3 hours", "value": 31, "unit": "%"},
      {"measurement": "reduction of pain intensity", "setting": "[1]; 5 hours", "value": 25, "unit": "%"},
      {"measurement": "cannabinol (product of THC oxidation) in residues", "setting": "[2]", "value": "no increase of cannabinol"},
      {"measurement": "mean Cmax increase per mg Δ^9-THC", "setting": "[3]; after the first puff of a 1.75% Δ^9-THC cigarette", "value": 3.54, "unit": "ng/ml per mg Δ^9-THC"},
      {"measurement": "mean Cmax increase per mg Δ^9-THC", "setting": "[3]; after the first puff of a 3.55% Δ^9-THC cigarette", "value": 4.28, "unit": "ng/ml per mg Δ^9-THC"},
      {"measurement": "plasma Cmax levels per mg of Δ^9-THC administered", "setting": "[3]; intravenous administration (Ohlsson et al. 1980)", "value": 43.8, "unit": "ng Δ^9-THC/ml plasma"},
      {"measurement": "inter-individual variability of Cmax (coefficient of variation)", "setting": "[3]; oral administration", "value": "42-115%"},
      {"measurement": "inter-individual variability of Cmax (coefficient of variation)", "setting": "[3]; oromucosal route of delivery", "value": "59-67%"},
      {"measurement": "inter-individual variability of Cmax (coefficient of variation)", "setting": "[3]; smoking cigarettes", "value": "32-115%"},
      {"measurement": "inter-individual variability of Cmax (coefficient of variation)", "setting": "[3]; vaporizer (Abrams)", "value": "47-85%"},
      {"measurement": "time to full recovery from light headedness", "setting": "[4]; all the other patients, post-inhalation", "value": "≤ 30", "unit": "min"},
      {"measurement": "adverse effects (overall)", "setting": "[4]; single dose inhalation with MDI, listed as THC", "value": "minimal, reversible and well tolerated; also recorded: minimal, reversible and receded rapidly"},
      {"measurement": "decrease of VAS pain intensity from baseline", "setting": "[5]; 20 minutes after inhalation, baseline 7.5±1.4, 95% CI [2.1, 4.9], P=0.001", "value": 3.4, "unit": "points"},
      {"measurement": "VAS pain intensity versus baseline", "setting": "[5]; 90 minutes post-dosing", "value": "virtually identical results as at baseline"},
      {"measurement": "time to reversal of pain reduction", "setting": "[5]; single inhalation, 3.08±0.02 mg total available Δ^9-THC", "value": "≤ 90", "unit": "min"},
      {"measurement": "inter-individual variability of Cmax (coefficient of variation)", "setting": "[6]; MDI device", "value": 25.3, "unit": "%"},
      {"measurement": "AUC", "setting": "[6]; human, plasma, inhaled or intranasal, 3.08 mg, AUC (Mean), mean of 8 participants, same single dose inhalation", "value": 10.1, "unit": "ng·h/mL"},
      {"measurement": "Cmax", "setting": "[6]; human, plasma, inhaled or intranasal, 3.08 mg, Cmax (Mean), mean of 8 participants, same single dose inhalation", "value": 38, "unit": "ng/mL"},
      {"measurement": "Tmax", "setting": "[6]; human, plasma, inhaled or intranasal, 3.08 mg, Tmax (Mean), mean of 8 participants, same single dose inhalation", "value": 3, "unit": "min"},
      {"measurement": "AUC(0-inf)", "setting": "[6]; human, plasma, inhaled, 3.08 mg", "value": 10.1, "unit": "ng·h/mL"},
      {"measurement": "time of first detection in blood sample", "setting": "[6]; post-inhalation, six patients without residual plasma THC at baseline", "value": 1, "unit": "min"},
      {"measurement": "increase of Cmax per mg of Δ^9-THC available in the cannabis used (mean)", "setting": "[6]; pulmonary delivery method described herein (MDI)", "value": 12.3, "unit": "ng/ml/mg Δ^9-THC"},
      {"measurement": "plasma concentration profile over time", "setting": "[6]; pulmonary delivery with the MDI", "value": "rapid absorption, followed by bi-phasic decline in plasma concentration over time"}
    ]}
  ]
}
